This note sets out measurements from patent US20240409557A1, “5,6-FUSED AND 6,6-FUSED BICYCLIC ALCOHOLS AND ETHERS AND COMPOSITIONS FOR USE AS 15-PROSTAGLANDIN DEHYDROGENASE MODULATORS” (AMGEN INC., priority 2023, published 2024).

The target in assay [1] is T1, human recombinant 15-PGDH (Homo sapiens, UniProt P15428).
T1 sequence (P15428 1-266): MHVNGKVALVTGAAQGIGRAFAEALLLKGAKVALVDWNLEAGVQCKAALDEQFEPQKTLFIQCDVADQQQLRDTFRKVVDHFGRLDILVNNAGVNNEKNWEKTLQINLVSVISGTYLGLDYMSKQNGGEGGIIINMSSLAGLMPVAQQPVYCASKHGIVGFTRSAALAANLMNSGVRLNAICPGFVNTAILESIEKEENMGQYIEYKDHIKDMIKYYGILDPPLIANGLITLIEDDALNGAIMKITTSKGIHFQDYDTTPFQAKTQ
Description: Recombinant 15-PGDH enzymatic inhibition assay (PGDH-Lumi, NADH signal). The format is biochemical. The conditions noted are these: recombinant 15-PGDH; 15 min pre-incubation, 60 min reaction with PGE2 and NAD+, NADH signal. A digest of the protocol:
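Buffer 50 mM Tris pH 7.5 with 0.01% Tween-20 and […]; compound, 22 two-fold dilutions, pre-incubated with enzyme 15 min before substrate.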

In assay [2] the target is T2, 15-PGDH in A549 cells (Homo sapiens, UniProt P15428).
T2 construct: endogenous in cells; host or cells: A549
T2 sequence (P15428 1-266): T1 sequence (P15428 1-266)
Kind of assay: A549 cellular 15-PGDH assay (PGE2 accumulation, HTRF). The format is cell-based. Particulars: interleukin-stimulated, inhibitor 24 hrs, PGE2 by competitive HTRF, read-out: A549 Cell Assay IC50. The gist of the method: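 Supernatant PGE2 was quantified by competitive HTRF, in which sample PGE2 blocks FRET between a europium cryptate-labelled antibody and labelled PGE2. It came from A549 epithelial cells induced with IL-13. IC50s were calculated from the inversely proportional signal.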

Turning to `O[C@]1(c2cc3cnc(-c4ccc5nccnc5c4)nc3s2)C[C@H](C(F)(F)F)C1` [Compound C123C, cis-1-(2-(6-quinoxalinyl)thieno[2,3-d]pyrimidin-6-yl)-3-(trifluoromethyl)cyclobutanol], the IC50 (commonly the concentration that gives 50% inhibition) was 0.967 nM in assay [1] and 6.18 nM in assay [2].

With `Cn1cc2cc(-c3ccc4cc([C@@H](O)[C@H]5C[C@H](C(F)(F)F)C5)sc4n3)cnc2n1` (single isomer, unassigned) [Compound B84ST], the IC50 in assay [1] turned out to be 1.21 nM; in assay [2], 0.642 nM.

For `Cc1c2cnc(-c3cnc4nn(C)cc4c3)nc2sc1[C@]1(O)C[C@@H](C(F)F)C1` [Compound C90C, cis-3-(difluoromethyl)-1-(5-methyl-2-(2-methyl-2H-pyrazolo[3,4-b]pyridin-5-yl)thieno[2,3-d]pyrimidin-6-yl)cyclobutanol], the results for the IC50 in assay [1] and in assay [2] were 14.4 nM and 33 nM, respectively.

With `Cn1nnc2cc(-c3ncc4cc([C@]5(O)C[C@@H](OC(F)(F)F)C5)sc4n3)cnc21` [Compound C111C, cis-1-(2-(3-methyl-3H-[1,2,3]triazolo[4,5-b]pyridin-6-yl)thieno[2,3-d]pyrimidin-6-yl)-3-(trifluoromethoxy)cyclobutanol], the IC50 is 1.09 nM in assay [1] and 3.95 nM in assay [2].

For `[2H]C(O)(c1cc2ccc(-c3cnc4nn(C)cc4c3)nc2s1)C1CCOCC1` (stereo not drawn) [Compound B66, (6-(2-methyl-2H-pyrazolo[3,4-b]pyridin-5-yl)thieno[2,3-b]pyridin-2-yl)(tetrahydro-2H-pyran-4-yl)methan-d-ol], the IC50 in assay [1] is 0.948 nM; in assay [2] it was 0.829 nM.

On to `Cn1ncc2cc(-c3ccc4cc([C@H](O)C5CCOCC5)sc4n3)ccc21` (single isomer, unassigned) [Compound B34R], for which the IC50 in assay [1] turned out to be 12.4 nM; in assay [2] it was 39.8 nM.

Take `[2H][C@@](O)(c1cc2ccc(-c3cnc4nn(C)cc4c3)nc2s1)C1CC(F)(F)C1` (single isomer, unassigned) [Compound B79S]: the figures for the 50% inhibitory concentration (IC50) in assay [1] and in assay [2] were 0.706 nM and 0.37 nM, respectively.

Take `Cc1c([C@H](CO)C2CC(F)(F)C2)sc2nc(-c3cnc4nn(C)cc4c3)ccc12` (single isomer, unassigned) [Compound B93S]: the values for the IC50 in assay [1] and in assay [2] were 2.64 nM and 14.2 nM, respectively.

For `CO[C@H]1CC[C@]1(O)c1cc2ccc(-c3cnc4nn(C)cc4c3)nc2s1` (single isomer, unassigned) [Compound C70RS], the figures for the IC50 in assay [1] and in assay [2] were 3860 nM and greater than 750 nM, respectively.

With `CO[C@H]1C[C@H]([C@@H](O)c2cc3ccc(-c4cnc5nn(C)cc5c4)nc3s2)C1` (single isomer, unassigned) [Compound B88RT], the IC50 in assay [1] was 0.524 nM; in assay [2], 0.511 nM.

Turning to `CO[C@]1(C)C[C@](O)(c2nc3ccc(-c4cnc5nn(C)cc5c4)nc3s2)C1` (single isomer, unassigned) [Compound C125T, trans-3-methoxy-3-methyl-1-(5-(2-methyl-2H-pyrazolo[3,4-b]pyridin-5-yl)[1,3]thiazolo[5,4-b]pyridin-2-yl)cyclobutanol], the half-maximal inhibitory concentration (IC50) came out at 0.75 nM in assay [1] and 5.42 nM in assay [2].

For `CC(C)n1cc2cc(-c3ccc4cc([C@H](O)C5CC(F)(F)C5)sc4n3)ccc2n1` (single isomer, unassigned) [Compound B56R], the IC50 in assay [1] worked out at 0.603 nM; in assay [2], 2.47 nM.

As to `Cn1cc2cc(-c3ncc4sc([C@]5(O)C[C@@H](C(F)F)C5)cc4n3)cnc2n1` [Compound C89C, cis-3-(difluoromethyl)-1-(2-(2-methyl-2H-pyrazolo[3,4-b]pyridin-5-yl)thieno[3,2-d]pyrimidin-6-yl)cyclobutanol], the values for the half-inhibitory concentration (IC50) in assay [1] and in assay [2] were 33.8 nM and 49.1 nM, respectively.

As for `O[C@]1(c2cc3cnc(-c4cccnc4)nc3s2)C[C@H](C(F)(F)F)C1` [Compound C122C, cis-1-(2-(3-pyridinyl)thieno[2,3-d]pyrimidin-6-yl)-3-(trifluoromethyl)cyclobutanol], the IC50 was found to be 6.83 nM in assay [1] and 18.3 nM in assay [2].

Take `CO[C@]1(C)C[C@](O)(c2cc3cnc(-c4cnc5c(c4)nnn5C)nc3s2)C1` (single isomer, unassigned) [Compound C121T, trans-3-methoxy-3-methyl-1-(2-(3-methyl-3H-[1,2,3]triazolo[4,5-b]pyridin-6-yl)thieno[2,3-d]pyrimidin-6-yl)cyclobutanol]: the IC50 in assay [1] is 6.52 nM; in assay [2], 13.4 nM.

Consider `Cn1nnc2cc(-c3ccc4nc([C@]5(O)C[C@H](OC(F)(F)F)C5)sc4n3)cnc21` [Compound C112C, cis-1-(5-(3-methyl-3H-[1,2,3]triazolo[4,5-b]pyridin-6-yl)[1,3]thiazolo[5,4-b]pyridin-2-yl)-3-(trifluoromethoxy)cyclobutanol], for which the IC50 in assay [1] stood at 0.589 nM; in assay [2], 3.15 nM.

Turning to `Cn1cc2cc(-c3ccc4cc(C5(O)CCC5)sc4n3)cnc2n1` [Compound C21, 1-(6-(2-methyl-2H-pyrazolo[3,4-b]pyridin-5-yl)thieno[2,3-b]pyridin-2-yl)cyclobutanol], the IC50 worked out at 1.76 nM in assay [1] and 18.9 nM in assay [2].

Take `Cc1cn2cc(-c3ccc4cc([C@H](O)C5CC(F)(F)C5)sc4n3)ccc2n1` (single isomer, unassigned) [Compound B48R]: the IC50 stood at 0.4 nM in assay [1] and 1.77 nM in assay [2].

As to `Cn1cc2cc(-c3ccc4c(N)c([C@@H](O)C5CC(F)(F)C5)sc4n3)cnc2n1` (single isomer, unassigned) [Compound B95S], the figures for the half-inhibitory concentration (IC50) in assay [1] and in assay [2] were 6.43 nM and 9.46 nM, respectively.

Regarding `Cn1cc2cc(-c3ncc4cc(C5(O)CC(C)(C)C5)sc4n3)cnc2n1` [Compound C57, 3,3-dimethyl-1-(2-(2-methyl-2H-pyrazolo[3,4-b]pyridin-5-yl)thieno[2,3-d]pyrimidin-6-yl)cyclobutanol], the IC50 in assay [1] was determined as 0.62 nM; in assay [2], 0.143 nM.

Take `Cc1nc2cc(-c3ccc4cc(C5(O)CC(F)(F)C5)sc4n3)cnc2[nH]1` [Compound C35, 3,3-difluoro-1-(6-(2-methyl-3H-imidazo[4,5-b]pyridin-6-yl)thieno[2,3-b]pyridin-2-yl)cyclobutanol]: the figures for the IC50 in assay [1] and in assay [2] were 0.832 nM and 1.35 nM, respectively.

`Cc1c([C@H](O)C2CCOCC2)sc2nc(-c3cnc4c(c3)nnn4C)ccc12` (single isomer, unassigned) [Compound B89R]: the values for the IC50 in assay [1] and in assay [2] were 1.77 nM and 4.82 nM, respectively.

In the case of `Cc1c([C@H](O)C2CC(F)(F)C2)sc2nc(-c3cnc4nn(C)cc4c3)ccc12` (single isomer, unassigned) [Compound B83R], the IC50 in assay [1] was found to be 0.296 nM; in assay [2], 0.0103 nM.

Consider `CO[C@]1(C)C[C@@](O)(c2cc3ccc(-c4cnc5c(c4)nnn5C)nc3s2)C1` (single isomer, unassigned) [Compound C102C, cis-3-methoxy-3-methyl-1-(6-(3-methyl-3H-[1,2,3]triazolo[4,5-b]pyridin-6-yl)thieno[2,3-b]pyridin-2-yl)cyclobutanol], for which the IC50 amounted to 0.971 nM in assay [1] and 2.53 nM in assay [2].

As to `CC(C)n1cc2cc(-c3ccc4cc(C(O)C5CC(F)(F)C5)sc4n3)ccc2n1` (stereo not shown) [Compound B56, (3,3-difluorocyclobutyl)(6-(2-(2-propanyl)-2H-indazol-5-yl)thieno[2,3-b]pyridin-2-yl)methanol], the half-maximal inhibitory concentration (IC50) in assay [1] was 1.15 nM; in assay [2], 3.22 nM.

As to `Cn1cc2cc(-c3cc(-c4ccnn4C)c4cc(C(O)C5CCC5)sc4n3)cnc2n1` (stereo not shown) [Compound B2, cyclobutyl(6-(2-methyl-2H-pyrazolo[3,4-b]pyridin-5-yl)-4-(1-methyl-1H-pyrazol-5-yl)thieno[2,3-b]pyridin-2-yl)methanol], the IC50 in assay [1] came out at 1.51 nM; in assay [2] it was 1.04 nM.

Take `Cn1cc2cc(-c3ccc4ccc([C@@H](O)C5CC(F)(F)C5)cc4n3)cnc2n1` (single isomer, unassigned) [Compound D1S]: the IC50 in assay [1] was determined as 1.17 nM; in assay [2], 0.656 nM.

`C[C@H]1CC[C@]1(O)c1cc2ccc(-c3cnc4nn(C)cc4c3)nc2s1` (single isomer, unassigned) [Compound C64RS]: the IC50 is 20.9 nM in assay [1] and 3.25 nM in assay [2].

Consider `Cn1cc2cc(-c3ccc4nc([C@]5(O)C[C@@H](C(F)F)C5)sc4n3)cnc2n1` [Compound C81C, cis-3-(difluoromethyl)-1-(5-(2-methyl-2H-pyrazolo[3,4-b]pyridin-5-yl)[1,3]thiazolo[5,4-b]pyridin-2-yl)cyclobutanol], for which the IC50 in assay [1] amounted to 0.641 nM; in assay [2], 2.69 nM.
